Test results taken from article PMC3199867, “Targeting surface nucleolin with multivalent HB-19 and related Nucant pseudopeptides results in distinct inhibitory mechanisms depending on the malignant tumor cell type” (BMC Cancer, 2011).

Tests used:
Test in all cases: Cell adhesion to plastic culture flask
Assay type in all cases: cell-based, human
MDA-MB-231 = conditions: MDA-MB-231, 10 μM, adherent cells counted after 16 hours of culture
From the text: (§1) A. Inhibition of Cell adhesion by N6. […] C. The effect of Nucant treatment on cell proliferation. […] The ordinates give the mean ± SD of triplicate samples. Statistical significance: **p < 0.01, ***p < 0.001.

MDA-MB-435 = conditions: MDA-MB-435, 10 μM, adherent cells counted after 16 hours of culture
From the text: as §1

LNCaP = conditions: 10 μM, adherent cells counted after 16 hours of culture
From the text: as §1

Substance: Ac-Lys-Aib-Gly-Lys-Aib-Gly-Lys-Aib-Gly-Lys-Aib-Gly-Lys-Aib-Gly-Lys-Aib-Gly-CONH2 [Nucant N6, Presents hexavalently the pseudo-tripeptide Lysψ(CH2N)-Pro-Arg coupled to the polypeptide template containing Aib]
- degree of adhesion inhibition (MDA-MB-231): 58%
- degree of adhesion inhibition (MDA-MB-435): 41%
- degree of adhesion inhibition (LNCaP): 66%
